The subject of one assay is Acinetobacter baumannii ATCC17961. The assay is described as follows: 90% Growth Inhibitory Concentration (IC90) determination, antimicrobial susceptibility testing. It is filed as cell-based. The settings on record: Acinetobacter baumannii, ATCC17961, 16 h, Acinetobacter baumannii ATCC17961; Iso-Sensitest broth; growth by optical density at 600 nm over 16h; concentration inhibiting 90% of the growth; read-out: ATCC 17961 IC90. In short, it runs like this:
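Broth microdilution in Iso-Sensitest medium, compounds twofold diluted (e.g. 50–0.097 μM final), inoculum ~5×10^(5) CFU/ml, 35±2° C. OD600 was read every 20 min over 16 h. IC90 was derived from growth inhibition during logarithmic growth.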
As a reminder, the IC90 is the concentration needed for an effect of 90%. On to `Cn1c(-c2cn(-c3ncc(N)cc3F)nc2C(F)(F)F)cnc1C(=O)Nc1ccc(C(=O)N2CCN(C(=O)C3CCNCC3)CC2)c(Cl)c1` [Example Z71, 5-[1-(5-amino-3-fluoro-2-pyridyl)-3-(trifluoromethyl)pyrazol-4-yl]-N-[3-chloro-4-[4-(piperidine-4-carbonyl)piperazine-1-carbonyl]phenyl]-1-methyl-imidazole-2-carboxamide], for which the 90% effect concentration (IC90) was determined as 310 nM.
Still for that read-out and setting: with `COc1ccnc(-n2cc(-c3cnc(C(=O)Nc4ccc(C(=O)N5CCN(C(=O)C6CCNCC6)CC5)c(Cl)c4)n3C)c(C(F)(F)F)n2)c1` [Example A12, N-[3-chloro-4-[4-(piperidine-4-carbonyl)piperazine-1-carbonyl]phenyl]-5-[1-(4-methoxy-2-pyridyl)-3-(trifluoromethyl)pyrazol-4-yl]-1-methyl-imidazole-2-carboxamide] the figure was 250 nM.
For the compound `Cn1c(-c2cn(-c3ccc(N)cn3)nc2C(F)(F)F)cnc1C(=O)Nc1ccc(C(=O)N2CCC(C(=O)N3CCNC(CO)C3)CC2)c(Cl)c1` (centres unmarked) [Example H2, 5-[1-(5-amino-2-pyridyl)-3-(trifluoromethyl)pyrazol-4-yl]-N-[3-chloro-4-[4-[3-(hydroxymethyl)piperazine-1-carbonyl]piperidine-1-carbonyl]phenyl]-1-methyl-imidazole-2-carboxamide], the IC90 was 880 nM.
The same measure, in the same setting: the value for `Cn1c(-c2cn(-c3ccc(NC(=O)C4CCNCC4)cn3)nc2C(F)(F)F)cnc1C(=O)Nc1ccc(C(=O)N2CCN(C(=O)C3CCNCC3)CC2)c(Cl)c1` [Example Z88, N-[6-[4-[2-[[3-chloro-4-(4-isonipecotoylpiperazine-1-carbonyl)phenyl]carbamoyl]-3-methyl-imidazol-4-yl]-3-(trifluoromethyl)pyrazol-1-yl]-3-pyridyl]isonipecotamide] was 980 nM.
`Cn1c(-c2cn(-c3ccc(N)cn3)nc2C(F)(F)F)cnc1C(=O)Nc1ccc(C(=O)N2CC[C@@H](CN)C2)c(Cl)c1` [Example Z7, N-[4-[(3S)-3-(aminomethyl)pyrrolidine-1-carbonyl]-3-chloro-phenyl]-5-[1-(5-amino-2-pyridyl)-3-(trifluoromethyl)pyrazol-4-yl]-1-methyl-imidazole-2-carboxamide]: the IC90 was found to be 250 nM.
Still for that read-out and setting: the value for `Cn1c(-c2cn(-c3ccc(N)cn3)nc2C(F)(F)F)cnc1C(=O)Nc1ccc(C(=O)NCCCN)c(Cl)c1` [Example Z2, N-[4-(3-aminopropylcarbamoyl)-3-chloro-phenyl]-5-[1-(5-amino-2-pyridyl)-3-(trifluoromethyl)pyrazol-4-yl]-1-methyl-imidazole-2-carboxamide] was 980 nM; that for `Cn1c(-c2cn(-c3ccc(N)cn3)nc2C(F)(F)F)cnc1C(=O)Nc1ccc(C(=O)N2CCCNCC2)c(Cl)c1` [Example Z60, 5-[1-(5-amino-2-pyridyl)-3-(trifluoromethyl)pyrazol-4-yl]-N-[3-chloro-4-(1,4-diazepane-1-carbonyl)phenyl]-1-methyl-imidazole-2-carboxamide] was 400 nM; that for `CNc1ccc(-n2cc(-c3cnc(C(=O)Nc4ccc(C(=O)N5CCN(C(=O)CN6CCC(O)C6)CC5)c(Cl)c4)n3C)c(C(F)(F)F)n2)nc1` (centres unmarked) [Example D5, N-[3-chloro-4-[4-[2-(3-hydroxypyrrolidin-1-yl)acetyl]piperazine-1-carbonyl]phenyl]-1-methyl-5-[1-[5-(methylamino)-2-pyridyl]-3-(trifluoromethyl)pyrazol-4-yl]imidazole-2-carboxamide] was 310 nM.
On the same count and under the same terms, with `Cn1c(-c2cn(-c3ccc(N)cn3)nc2C(F)(F)F)cnc1C(=O)Nc1ccc(C(=O)N2CCNCC23CC3)c(Cl)c1` [Example Z67, 5-[1-(5-amino-2-pyridyl)-3-(trifluoromethyl)pyrazol-4-yl]-N-[3-chloro-4-(4,7-diazaspiro[2.5]octane-4-carbonyl)phenyl]-1-methyl-imidazole-2-carboxamide] the figure was 890 nM.
Same read-out and setting: the value for `Cn1c(-c2cn(-c3ncccc3C(F)(F)F)nc2C(F)(F)F)cnc1C(=O)Nc1ccc(C(=O)N2CCN(C(=O)C3CCNCC3)CC2)c(Cl)c1` [Example A10, N-[3-chloro-4-[4-(piperidine-4-carbonyl)piperazine-1-carbonyl]phenyl]-1-methyl-5-[3-(trifluoromethyl)-1-[3-(trifluoromethyl)-2-pyridyl]pyrazol-4-yl]imidazole-2-carboxamide] was 830 nM; that for `Cn1c(-c2cn(-c3ccc(N)cn3)nc2C(F)(F)F)cnc1C(=O)Nc1ccc(C(=O)N2CC3CNCC3C2)c(Cl)c1` (centres unmarked) [Example Z12, N-[4-(2,3,3a,4,6,6a-hexahydro-1H-pyrrolo[3,4-c]pyrrole-5-carbonyl)-3-chloro-phenyl]-5-[1-(5-amino-2-pyridyl)-3-(trifluoromethyl)pyrazol-4-yl]-1-methyl-imidazole-2-carboxamide] was 930 nM; that for `COCCOc1cnc(-n2cc(-c3cnc(C(=O)Nc4ccc(C(=O)N5CCN(C(=O)C6CCNCC6)CC5)c(Cl)c4)n3C)c(C(F)(F)F)n2)nc1` [Example A6, N-[3-chloro-4-[4-(piperidine-4-carbonyl)piperazine-1-carbonyl]phenyl]-5-[1-[5-(2-methoxyethoxy)pyrimidin-2-yl]-3-(trifluoromethyl)pyrazol-4-yl]-1-methyl-imidazole-2-carboxamide] was 540 nM.
With `Cc1ccc(-n2cc(-c3cnc(C(=O)Nc4ccc(C(=O)N5CCN(C(=O)C6CCNCC6)CC5)c(Cl)c4)n3C)c(C(F)(F)F)n2)nc1` [Example E6, N-[3-chloro-4-[4-(piperidine-4-carbonyl)piperazine-1-carbonyl]phenyl]-1-methyl-5-[1-(5-methyl-2-pyridyl)-3-(trifluoromethyl)pyrazol-4-yl]imidazole-2-carboxamide], the IC90 was 350 nM.
As to `Cn1c(-c2cn(-c3ccc(N)cn3)nc2C(F)(F)F)cnc1C(=O)Nc1ccc(C(=O)N2CC3CNC3C2)c(Cl)c1` (centres unmarked) [Example Z59, 5-[1-(5-amino-2-pyridyl)-3-(trifluoromethyl)pyrazol-4-yl]-N-[3-chloro-4-(3,6-diazabicyclo[3.2.0]heptane-3-carbonyl)phenyl]-1-methyl-imidazole-2-carboxamide], the IC90 was determined as 1310 nM.
With `Cn1c(-c2cn(-c3ccc(N)cn3)nc2C(F)(F)F)cnc1C(=O)Nc1ccc(C(=O)NCC2CCN(C(=O)C3CCNCC3)CC2)c(Cl)c1` [Example C7, 5-[1-(5-amino-2-pyridyl)-3-(trifluoromethyl)pyrazol-4-yl]-N-[3-chloro-4-[[1-(piperidine-4-carbonyl)-4-piperidyl]methylcarbamoyl]phenyl]-1-methyl-imidazole-2-carboxamide], the IC90 was determined as 660 nM.

The same assay, now with this note: Acinetobacter baumannii, ATCC17961, 16 h, read-out: ATCC 17961 IC90.
For the compound `Cn1c(-c2cn(-c3ccc(N)cn3)nc2C(F)(F)F)cnc1C(=O)Nc1ccc(C(=O)NCCN)c(Cl)c1` [Example Z17, N-[4-(2-aminoethylcarbamoyl)-3-chloro-phenyl]-5-[1-(5-amino-2-pyridyl)-3-(trifluoromethyl)pyrazol-4-yl]-1-methyl-imidazole-2-carboxamide], the 90% effect concentration (IC90) worked out at 990 nM.
On to `Cn1c(-c2cn(-c3ccc(N)cn3)nc2C(F)(F)F)cnc1C(=O)Nc1ccc(C(=O)N2CC[C@H](CN)C2)c(Cl)c1` [Example Z1, N-[4-[(3R)-3-(aminomethyl)pyrrolidine-1-carbonyl]-3-chloro-phenyl]-5-[1-(5-amino-2-pyridyl)-3-(trifluoromethyl)pyrazol-4-yl]-1-methyl-imidazole-2-carboxamide], for which the IC90 turned out to be 480 nM.

(Values after patent US12679824B2 (Hoffmann-La Roche Inc., priority 2020, dated 2026).)
